Results taken from PubChem BioAssay AID330 (DTP/NCI, 2004).
Values joined by “and” are separate entries in the source; they are usually repeats but may differ in a detail not shown here. Identical values can stand only once. Toxic doses and inconclusive results are not listed.

Test system: P388 leukemia ip, CD2F1 mice, survival T/C
Assay: NCI In Vivo Anticancer Drug Screen. Data for tumor model P388 Leukemia (intraperitoneal) in CD2F1 (CDF1) mice
Conditions: endpoint: median survival time, higher = longer survival
Procedure, shortened: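 Mice carrying the transplanted tumor received test compound or vehicle. Survival was recorded in each group, and the value is the treated-group measurement divided by that of the vehicle-treated control group.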

[1] = dose: 100.0 mg/kg/injection, schedule: Q01DX009 (ip), vehicle: saline with Tween-80
[2] = dose: 100.0 mg/kg/injection, schedule: Q04DX003 (ip), vehicle: saline with Tween-80
[3] = dose: 200.0 mg/kg/injection, schedule: Q04DX003 (ip), vehicle: saline with Tween-80
[4] = dose: 400.0 mg/kg/injection, schedule: Q04DX003 (ip), vehicle: saline with Tween-80
[5] = dose: 60.0 mg/kg/injection, schedule: Q01DX005 (ip), vehicle: saline
[6] = dose: 25.0 mg/kg/injection, schedule: Q01DX009 (ip), vehicle: saline with Tween-80
[7] = dose: 50.0 mg/kg/injection, schedule: Q01DX009 (ip), vehicle: saline with Tween-80
[8] = dose: 12.5 mg/kg/injection, schedule: Q01DX009 (ip), vehicle: saline with Tween-80
[9] = dose: 100.0 mg/kg/injection, schedule: Q04DX003 (ip), vehicle: saline
[10] = dose: 200.0 mg/kg/injection, schedule: Q04DX003 (ip), vehicle: saline
[11] = dose: 50.0 mg/kg/injection, schedule: Q01DX005 (ip), vehicle: Klucel (hydroxypropylcellulose) (HPC)
[12] = dose: 100.0 mg/kg/injection, schedule: Q01DX005 (ip), vehicle: Klucel (hydroxypropylcellulose) (HPC)
[13] = dose: 60.0 mg/kg/injection, schedule: Q01DX005 (ip), vehicle: saline with Tween-80
[14] = dose: 120.0 mg/kg/injection, schedule: Q01DX005 (ip), vehicle: saline with Tween-80
[15] = dose: 240.0 mg/kg/injection, schedule: Q01DX005 (ip), vehicle: saline with Tween-80

With `CN(C)[C@@H]1C(=O)C(C(=O)NCc2nc3[nH]cnc(=S)c3[nH]2)=C(O)[C@@]2(O)C(=O)C3=C(O)c4c(O)cccc4[C@@](C)(O)[C@H]3C[C@@H]12` as the compound, how does the T/C [1] read?
Its T/C is 100 % of control.

What about the T/C [2] of the same compound?
Its T/C is 95 % of control.

What about the T/C (dose: 200.0 mg/kg/injection, schedule: Q01DX009 (ip), vehicle: saline with Tween-80) of the same compound?
The T/C was 100 % of control.

What about the T/C [3] of the same compound?
The T/C was 95 % of control.

What about the T/C (dose: 400.0 mg/kg/injection, schedule: Q01DX009 (ip), vehicle: saline with Tween-80) of the same compound?
The T/C was 110 % of control.

What about the T/C [4] of the same compound?
The T/C was 100 % of control.

How did the T/C [5] turn out when `CC(C(=O)c1ccccc1)c1nc2nnc(N)n2[nH]c1=O` (stereo not given) was run?
The T/C was 95 % of control.

What about the T/C (dose: 120.0 mg/kg/injection, schedule: Q01DX005 (ip), vehicle: saline) of the same compound?
The T/C was 100 % of control.

What about the T/C (dose: 240.0 mg/kg/injection, schedule: Q01DX005 (ip), vehicle: saline) of the same compound?
The T/C was 95 % of control.

With `Cc1ccc(S(=O)(=O)C(Sc2ccccc2)=S=NC(C)(C)C)cc1` as the compound, how does the T/C (dose: 50.0 mg/kg/injection, schedule: Q01DX009 (ip), vehicle: Klucel (hydroxypropylcellulose) (HPC)) read?
The T/C was 104 % of control.

And the T/C (dose: 100.0 mg/kg/injection, schedule: Q01DX009 (ip), vehicle: Klucel (hydroxypropylcellulose) (HPC))?
The T/C was 98 % of control.

What about the T/C (dose: 200.0 mg/kg/injection, schedule: Q01DX009 (ip), vehicle: Klucel (hydroxypropylcellulose) (HPC)) of the same compound?
Its T/C is 109 % of control.

How did the T/C [6] turn out when `CC(C)(C)N(OC(=O)c1ccc([N+](=O)[O-])cc1)c1ccccc1` was run?
The T/C was 98 % of control.

What about the T/C [7] of the same compound?
Its T/C is 97 % of control.

And the T/C [1]?
Its T/C is 95 % of control.

For `CC(=O)C1C(=O)OC(C)=C(C(=O)O)C1=O` (stereo not given), which T/C (dose: 50.0 mg/kg/injection, schedule: Q04DX003 (ip), vehicle: saline with Tween-80) is on record?
The T/C was 109 % of control.

What about the T/C [2] of the same compound?
Its T/C is 109 % of control.

And the T/C [3]?
Its T/C is 100 % of control.

For `O=C(C[N+]12CN3CN(CN(C3)C1)C2)c1ccc(Cl)cc1`, which T/C (dose: 66.0 mg/kg/injection, schedule: Q04DX003 (ip), vehicle: saline sonified) is on record?
The T/C was 104 % of control.

And the T/C (dose: 100.0 mg/kg/injection, schedule: Q04DX003 (ip), vehicle: saline sonified)?
Its T/C is 122 % of control.

And the T/C (dose: 150.0 mg/kg/injection, schedule: Q04DX003 (ip), vehicle: saline sonified)?
The T/C was 118 % of control.

With `CCOP(=O)(OCC)C1CCC(=O)O1` (stereo not given) as the compound, how does the T/C (dose: 15.0 mg/kg/injection, schedule: Q01DX005 (ip), vehicle: saline) read?
Its T/C is 100 % of control.

And the T/C (dose: 30.0 mg/kg/injection, schedule: Q01DX005 (ip), vehicle: saline)?
The T/C was 99 % of control.

What about the T/C [5] of the same compound?
Its T/C is 99 % of control and 94 % of control.

For `COC1/C=C/OC2(C)Oc3c(C)c(O)c4c(O)c(c(/C=N/NC5C6CC7CC(C6)CC5C7)c(O)c4c3C2=O)NC(=O)/C(C)=C/C=C/C(C)C(O)C(C)C(O)C(C)C(OC(C)=O)C1C` (stereo not given), which T/C [8] is on record?
The T/C was 106 % of control.

And the T/C [6]?
Its T/C is 109 % of control.

What about the T/C [7] of the same compound?
The T/C was 113 % of control and 95 % of control.

What does the source list for `O=C(Nc1ccc(OCc2ccccc2)cc1)c1cc2c(cc1Br)OCO2`?
T/C (dose: 25.0 mg/kg/injection, schedule: Q01DX009 (ip), vehicle: other): 106 % of control; T/C (dose: 50.0 mg/kg/injection, schedule: Q01DX009 (ip), vehicle: other): 104 % of control; T/C (dose: 100.0 mg/kg/injection, schedule: Q01DX009 (ip), vehicle: other): 106 % of control; T/C (dose: 200.0 mg/kg/injection, schedule: Q01DX009 (ip), vehicle: other): 100 % of control; T/C (dose: 400.0 mg/kg/injection, schedule: Q01DX009 (ip), vehicle: other): 100 % of control

For `Cc1ccc(S(=O)(=O)ON/N=c2\ccn(C)c3ccccc23)cc1`, which T/C [9] is on record?
Its T/C is 101 % of control.

And the T/C [10]?
The T/C was 99 % of control.

What about the T/C (dose: 400.0 mg/kg/injection, schedule: Q04DX003 (ip), vehicle: saline) of the same compound?
The T/C was 99 % of control.

What does the source list for `C[CH2][Sn]1([CH2]C)[O]OC(c2ccccc2)[O]1` (stereo not given)?
T/C (dose: 1.56 mg/kg/injection, schedule: Q01DX009 (ip), vehicle: saline with Tween-80): 155 % of control; T/C [8]: 173 % of control

What does the source list for `COCC(=O)C(C(C)=O)C(c1ccc2c(c1)OCO2)C(C(C)=O)C(=O)COC` (stereo not given)?
T/C [2]: 90 % of control; T/C [3]: 90 % of control; T/C [4]: 95 % of control

`Nc1ccc2c(-c3ccccc3)cc(=O)[nH]c2c1` was tested. Which T/C [11] did it give?
The T/C was 95 % of control.

What about the T/C [12] of the same compound?
The T/C was 100 % of control.

`Nc1nc(-c2ccccc2)c(CC(=O)O)c(-c2nc(N)nc(-c3ccccc3)c2CC(=O)O)n1` was tested. Which T/C [13] did it give?
Its T/C is 100 % of control.

What about the T/C [14] of the same compound?
The T/C was 100 % of control.

And the T/C [15]?
The T/C was 86 % of control.

`[S-]c1n[n+](-c2ccccc2)no1` was tested. Which T/C (dose: 6.25 mg/kg/injection, schedule: Q01DX009 (ip), vehicle: distilled water + Tween-80) did it give?
Its T/C is 102 % of control.

What about the T/C (dose: 12.5 mg/kg/injection, schedule: Q01DX009 (ip), vehicle: distilled water + Tween-80) of the same compound?
The T/C was 88 % of control.

What does the source list for `O=S1(=O)N=C([O-])c2ccc(C[N+]3(CCCl)CCN(CCCl)CC3)cc21`?
T/C (dose: 12.5 mg/kg/injection, schedule: Q01DX009 (ip), vehicle: DMSO): 87 % of control; T/C (dose: 25.0 mg/kg/injection, schedule: Q01DX009 (ip), vehicle: DMSO): 105 % of control; T/C (dose: 50.0 mg/kg/injection, schedule: Q01DX009 (ip), vehicle: DMSO): 87 % of control; T/C (dose: 100.0 mg/kg/injection, schedule: Q01DX009 (ip), vehicle: DMSO): 115 % of control

`Clc1ccc(C(Nc2nncs2)Nc2nncs2)cc1` was tested. Which T/C [13] did it give?
Its T/C is 94 % of control.

And the T/C [14]?
Its T/C is 93 % of control.

What about the T/C [15] of the same compound?
The T/C was 98 % of control.

What does the source list for `COC(=O)c1ccc(NCC(=N)N)cc1`?
T/C (dose: 50.0 mg/kg/injection, schedule: Q01DX001 (ip), vehicle: saline): 100 % of control; T/C (dose: 100.0 mg/kg/injection, schedule: Q01DX001 (ip), vehicle: saline): 100 % of control; T/C (dose: 200.0 mg/kg/injection, schedule: Q01DX001 (ip), vehicle: saline): 104 % of control

Which T/C (dose: 25.0 mg/kg/injection, schedule: Q01DX005 (ip), vehicle: saline) does the source give for `O=[N+]([O-])c1nccn1CC(O)CCN1CCOCC1` (stereo not given) here?
Its T/C is 110 % of control.

And the T/C (dose: 50.0 mg/kg/injection, schedule: Q01DX005 (ip), vehicle: saline)?
Its T/C is 102 % of control.

What about the T/C (dose: 100.0 mg/kg/injection, schedule: Q01DX005 (ip), vehicle: saline) of the same compound?
Its T/C is 102 % of control.

And the T/C (dose: 200.0 mg/kg/injection, schedule: Q01DX005 (ip), vehicle: saline)?
Its T/C is 106 % of control.

What about the T/C (dose: 400.0 mg/kg/injection, schedule: Q01DX005 (ip), vehicle: saline) of the same compound?
The T/C was 101 % of control.

How did the T/C (dose: 25.0 mg/kg/injection, schedule: Q01DX005 (ip), vehicle: Klucel (hydroxypropylcellulose) (HPC)) turn out when `O=C(CI)Nc1ccc2[nH]c(=O)cc(C(=O)O)c2c1` was run?
The T/C was 100 % of control.

And the T/C [11]?
Its T/C is 101 % of control.

What about the T/C [12] of the same compound?
The T/C was 108 % of control.

For `O=C1c2ccccc2-c2nc3cncnc3nc21` (tested in a mixture with another compound), which T/C (dose: 50.0 mg/kg/injection, schedule: Q04DX003 (ip), vehicle: saline) is on record?
The T/C was 109 % of control.

What about the T/C [9] of the same compound?
The T/C was 109 % of control.

What about the T/C [10] of the same compound?
The T/C was 104 % of control.

Which T/C (dose: 0.94 mg/kg/injection, schedule: Q01DX005 (ip), vehicle: saline) does the source give for `C=C(CN(C)C)C(=O)c1ccccc1` here?
Its T/C is 122 % of control.

What about the T/C (dose: 1.25 mg/kg/injection, schedule: Q01DX005 (ip), vehicle: saline) of the same compound?
Its T/C is 112 % of control.

What about the T/C (dose: 1.88 mg/kg/injection, schedule: Q01DX005 (ip), vehicle: saline) of the same compound?
Its T/C is 112 % of control.

And the T/C (dose: 2.5 mg/kg/injection, schedule: Q01DX005 (ip), vehicle: saline)?
Its T/C is 112 % of control.

What about the T/C (dose: 3.75 mg/kg/injection, schedule: Q01DX005 (ip), vehicle: saline) of the same compound?
The T/C was 99 % of control and 97 % of control.

And the T/C (dose: 5.0 mg/kg/injection, schedule: Q01DX005 (ip), vehicle: saline)?
Its T/C is 98 % of control and 104 % of control.

How did the T/C (dose: 3.13 mg/kg/injection, schedule: Q01DX009 (ip), vehicle: saline) turn out when `NS(=O)(=O)C1CCCCC1` was run?
The T/C was 106 % of control.

And the T/C (dose: 6.25 mg/kg/injection, schedule: Q01DX009 (ip), vehicle: saline)?
Its T/C is 99 % of control.

And the T/C (dose: 12.5 mg/kg/injection, schedule: Q01DX009 (ip), vehicle: saline)?
Its T/C is 106 % of control.

What about the T/C (dose: 25.0 mg/kg/injection, schedule: Q01DX009 (ip), vehicle: saline) of the same compound?
Its T/C is 106 % of control.

Which results are given for `[Cl][Pt+2][Cl].[NH-]c1nc2ccc(Br)cc2s1.[NH-]c1nc2ccc(Br)cc2s1`?
T/C (dose: 100.0 mg/kg/injection, schedule: Q04DX002 (ip), vehicle: saline with Tween-80): 103 % of control; T/C (dose: 200.0 mg/kg/injection, schedule: Q04DX002 (ip), vehicle: saline with Tween-80): 91 % of control
